Measurements as given in the supplement of paper PMC10307832.

Assays:
Experiment in all cases: relative viability (nuclei count vs DMSO), 5 days (fraction); higher = more cells survive
NCI-H2085 = test system: NCI-H2085
Summary of the method: (§1)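 For relative viability, nuclei counts in treated wells were divided by those in vehicle wells. Lung cancer cell lines had been pin-tool dosed in 1536-well plates the day after seeding and cultured for 5 days, then fixed and stained in one step (final 0.05% Triton X-100, 1% formaldehyde, 1 ug/ml Hoechst) and imaged at 4×. Doses were one drug alone or a fixed anchor-drug dose plus five library-drug doses (not always all listed) in √10 steps, and values are duplicate-plate medians.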

NCI-H460 = test system: NCI-H460
Summary of the method: as §1

NCI-H1993 = test system: NCI-H1993
Summary of the method: as §1

LK-2 = test system: LK-2
Summary of the method: as §1

ChaGo-K-1 = test system: ChaGo-K-1
Summary of the method: as §1

NCI-H1355 = test system: NCI-H1355
Summary of the method: as §1

NCI-H838 = test system: NCI-H838
Summary of the method: as §1

LCLC-97TM1 = test system: LCLC-97TM1
Summary of the method: as §1

NCI-H2405 = test system: NCI-H2405
Summary of the method: as §1

201T = test system: 201T
Summary of the method: as §1

HCC-15 = test system: HCC-15
Summary of the method: as §1

NCI-H3122 = test system: NCI-H3122
Summary of the method: as §1

HCC-78 = test system: HCC-78
Summary of the method: as §1

HARA = test system: HARA
Summary of the method: as §1

HCC-366 = test system: HCC-366
Summary of the method: as §1

NCI-H1734 = test system: NCI-H1734
Summary of the method: as §1

NCI-H1792 = test system: NCI-H1792
Summary of the method: as §1

LOU-NH91 = test system: LOU-NH91
Summary of the method: as §1

NCI-H1975 = test system: NCI-H1975
Summary of the method: as §1

SMILES: C=C1C(=O)O[C@@H](CCCCCCCC)[C@@H]1C(=O)O [C-75] + NC(=O)Nc1cc(-c2cccc(F)c2)sc1C(=O)N[C@H]1CCCNC1 [AZD7762] (partner 0.2 µM)
- relative viability (NCI-H2085; first compound 0.08 µM): 0.95
- relative viability (NCI-H2085; first compound 0.253 µM): 1.09
- relative viability (NCI-H2085; first compound 0.8 µM): 0.919
- relative viability (NCI-H2085; first compound 2.53 µM): 0.943
- relative viability (NCI-H2085; first compound 8 µM): 1
- relative viability (NCI-H460; first compound 0.08 µM): 0.685
- relative viability (NCI-H460; first compound 0.253 µM): 0.805
- relative viability (NCI-H460; first compound 0.8 µM): 0.595
- relative viability (NCI-H460; first compound 2.53 µM): 0.555
- relative viability (NCI-H460; first compound 8 µM): 0.706
- relative viability (NCI-H1993; first compound 0.08 µM): 0.959
- relative viability (NCI-H1993; first compound 0.253 µM): 0.998
- relative viability (NCI-H1993; first compound 0.8 µM): 0.772
- relative viability (NCI-H1993; first compound 2.53 µM): 0.687
- relative viability (NCI-H1993; first compound 8 µM): 0.685
- relative viability (LK-2; first compound 0.08 µM): 0.355
- relative viability (LK-2; first compound 0.253 µM): 0.699
- relative viability (LK-2; first compound 0.8 µM): 0.299
- relative viability (LK-2; first compound 2.53 µM): 0.289
- relative viability (LK-2; first compound 8 µM): 0.255
- relative viability (ChaGo-K-1; first compound 0.08 µM): 0.857
- relative viability (ChaGo-K-1; first compound 0.253 µM): 0.921
- relative viability (ChaGo-K-1; first compound 0.8 µM): 0.777
- relative viability (ChaGo-K-1; first compound 2.53 µM): 0.603
- relative viability (ChaGo-K-1; first compound 8 µM): 0.812
- relative viability (NCI-H1355; first compound 0.08 µM): 0.742
- relative viability (NCI-H1355; first compound 0.253 µM): 0.831
- relative viability (NCI-H1355; first compound 0.8 µM): 0.738
- relative viability (NCI-H1355; first compound 2.53 µM): 0.663
- relative viability (NCI-H1355; first compound 8 µM): 0.764
- relative viability (NCI-H838; first compound 0.08 µM): 0.89
- relative viability (NCI-H838; first compound 0.253 µM): 0.752
- relative viability (NCI-H838; first compound 0.8 µM): 0.943
- relative viability (NCI-H838; first compound 2.53 µM): 0.865
- relative viability (NCI-H838; first compound 8 µM): 0.891
- relative viability (LCLC-97TM1; first compound 0.08 µM): 0.248
- relative viability (LCLC-97TM1; first compound 0.253 µM): 0.581
- relative viability (LCLC-97TM1; first compound 0.8 µM): 0.218
- relative viability (LCLC-97TM1; first compound 2.53 µM): 0.254
- relative viability (LCLC-97TM1; first compound 8 µM): 0.833
- relative viability (NCI-H2405; first compound 0.08 µM): 0.689
- relative viability (NCI-H2405; first compound 0.253 µM): 0.4
- relative viability (NCI-H2405; first compound 0.8 µM): 0.831
- relative viability (NCI-H2405; first compound 2.53 µM): 0.67
- relative viability (NCI-H2405; first compound 8 µM): 0.764
- relative viability (201T; first compound 0.08 µM): 0.588
- relative viability (201T; first compound 0.253 µM): 0.687
- relative viability (201T; first compound 0.8 µM): 0.631
- relative viability (201T; first compound 2.53 µM): 0.507
- relative viability (201T; first compound 8 µM): 0.566
- relative viability (HCC-15; first compound 0.08 µM): 1.37
- relative viability (HCC-15; first compound 0.253 µM): 1.39
- relative viability (HCC-15; first compound 0.8 µM): 1.2
- relative viability (HCC-15; first compound 2.53 µM): 0.78
- relative viability (HCC-15; first compound 8 µM): 1.22
- relative viability (NCI-H3122; first compound 0.08 µM): 1.03
- relative viability (NCI-H3122; first compound 0.253 µM): 1.09
- relative viability (NCI-H3122; first compound 0.8 µM): 0.951
- relative viability (NCI-H3122; first compound 2.53 µM): 0.883
- relative viability (NCI-H3122; first compound 8 µM): 1.03
- relative viability (HCC-78; first compound 0.08 µM): 0.584
- relative viability (HCC-78; first compound 0.253 µM): 0.409
- relative viability (HCC-78; first compound 0.8 µM): 0.579
- relative viability (HCC-78; first compound 8 µM): 0.72
- relative viability (HARA; first compound 0.08 µM): 0.568
- relative viability (HARA; first compound 0.253 µM): 0.469
- relative viability (HARA; first compound 0.8 µM): 0.213
- relative viability (HARA; first compound 2.53 µM): 0.447
- relative viability (HARA; first compound 8 µM): 0.722
- relative viability (HCC-366; first compound 0.08 µM): 0.271
- relative viability (HCC-366; first compound 0.253 µM): 0.306
- relative viability (HCC-366; first compound 0.8 µM): 0.227
- relative viability (HCC-366; first compound 2.53 µM): 0.152
- relative viability (HCC-366; first compound 8 µM): 0.52
- relative viability (NCI-H1734; first compound 0.08 µM): 0.562
- relative viability (NCI-H1734; first compound 0.253 µM): 0.587
- relative viability (NCI-H1734; first compound 0.8 µM): 0.488
- relative viability (NCI-H1734; first compound 2.53 µM): 0.278
- relative viability (NCI-H1734; first compound 8 µM): 0.664
- relative viability (NCI-H1792; first compound 0.08 µM): 0.787
- relative viability (NCI-H1792; first compound 0.253 µM): 0.623
- relative viability (NCI-H1792; first compound 0.8 µM): 0.748
- relative viability (NCI-H1792; first compound 2.53 µM): 0.443
- relative viability (NCI-H1792; first compound 8 µM): 0.554
- relative viability (LOU-NH91; first compound 0.08 µM): 0.739
- relative viability (LOU-NH91; first compound 0.253 µM): 0.704
- relative viability (LOU-NH91; first compound 0.8 µM): 0.684
- relative viability (LOU-NH91; first compound 8 µM): 0.818
- relative viability (NCI-H1975; first compound 0.08 µM): 0.771
- relative viability (NCI-H1975; first compound 0.253 µM): 0.556
- relative viability (NCI-H1975; first compound 0.8 µM): 0.623
- relative viability (NCI-H1975; first compound 2.53 µM): 0.667
- relative viability (NCI-H1975; first compound 8 µM): 0.78
